# System: blackgrass
# Assay: Test Example 4: herbicidal effect by soil treatment (Table 19, symbol J)
# Assay type: in vivo, blackgrass (Alopecurus myosuroides)
# Details: amount of applied herbicide 320 g/ha
# In short: (§1)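 Soil-surface application: an emulsion agent diluted with water to the predetermined dose is sprayed uniformly over seeds lying under roughly 1.5 cm of sterilized diluvial soil. Boxes stay in a greenhouse at 25° C. to 30° C. Three weeks later, each species is graded on previously defined criteria.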
row,SMILES,"J: blackgrass, herbicidal effect grade"
1,CCOc1ccc2c(-c3c(O)c(C)nn(C)c3=O)c(-c3ccccc3OC)sc2c1Cl [7-003],0 (Herbicidal rate of 5% or less (almost no effect))
2,CCOc1ccccc1-c1sc2c(Cl)c(OCC)ccc2c1-c1c(O)c(C)nn(C)c1=O [7-004],0 (Herbicidal rate of 5% or less (almost no effect))

# System: windgrass
# Assay: Test Example 5: herbicidal effect by foliage application, plastic box (Table 20, symbol L)
# Assay type: in vivo, windgrass (Apera spica-venti)
# Details: foliage application, 320 g/ha, three weeks after application
# In short: (§2)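 Sow seeds spot-wise in sterilized diluvial soil; cover with ~1.5 cm soil. Grow 14 days in greenhouse, 25° C. to 30° C. Spray foliage with emulsion diluted to predetermined amount. Rate effect after 3 weeks.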
row,SMILES,herbicidal effect on windgrass (L)
1,CCOc1ccc2c(-c3c(O)c(C)nn(C)c3=O)c(-c3ccccc3OC)sc2c1Cl [7-003],3 (Herbicidal rate of 40% or more and less than 70%)
2,CCOc1ccccc1-c1sc2c(Cl)c(OCC)ccc2c1-c1c(O)c(C)nn(C)c1=O [7-004],0 (Herbicidal rate of 5% or less (almost no effect))

# System: wild oat
# Assay: Test Example 5: herbicidal effect by foliage application, plastic box (Table 20, symbol I)
# Assay type: in vivo, wild oat (Avena fatua)
# Details: foliage application, 320 g/ha, three weeks after application
# In short: as §2
row,SMILES,herbicidal effect on wild oat (I)
1,CCOc1ccc2c(-c3c(O)c(C)nn(C)c3=O)c(-c3ccccc3OC)sc2c1Cl [7-003],0 (Herbicidal rate of 5% or less (almost no effect))
2,CCOc1ccccc1-c1sc2c(Cl)c(OCC)ccc2c1-c1c(O)c(C)nn(C)c1=O [7-004],0 (Herbicidal rate of 5% or less (almost no effect))

# System: velvetleaf
# Assay: Test Example 5: herbicidal effect by foliage application, plastic box (Table 20, symbol M)
# Assay type: in vivo, velvetleaf (Abutilon theophrasti)
# Details: foliage application, 320 g/ha, three weeks after application
# In short: as §2
row,SMILES,herbicidal effect on velvetleaf (M)
1,CCOc1ccc2c(-c3c(O)c(C)nn(C)c3=O)c(-c3ccccc3OC)sc2c1Cl [7-003],5 (Herbicidal rate of 90% or more (almost completely withered))
2,CCOc1ccccc1-c1sc2c(Cl)c(OCC)ccc2c1-c1c(O)c(C)nn(C)c1=O [7-004],4 (Herbicidal rate of 70% or more and less than 90%)

# System: persian speedwell
# Assay: Test Example 5: herbicidal effect by foliage application, plastic box (Table 20, symbol R)
# Assay type: in vivo, Persian speedwell (Veronica persica)
# Details: foliage application, 320 g/ha, three weeks after application
# In short: as §2
row,SMILES,herbicidal effect on persian speedwell (R)
1,CCOc1ccc2c(-c3c(O)c(C)nn(C)c3=O)c(-c3ccccc3OC)sc2c1Cl [7-003],5 (Herbicidal rate of 90% or more (almost completely withered))
2,CCOc1ccccc1-c1sc2c(Cl)c(OCC)ccc2c1-c1c(O)c(C)nn(C)c1=O [7-004],5 (Herbicidal rate of 90% or more (almost completely withered))

# System: Italian ryegrass
# Assay: Test Example 4: herbicidal effect by soil treatment (Table 19, symbol K)
# Assay type: in vivo, Italian ryegrass (Lolium multiflorum)
# Details: amount of applied herbicide 320 g/ha
# In short: as §1
row,SMILES,"K: Italian ryegrass, herbicidal effect grade"
1,CCOc1ccc2c(-c3c(O)c(C)nn(C)c3=O)c(-c3ccccc3OC)sc2c1Cl [7-003],0 (Herbicidal rate of 5% or less (almost no effect))
2,CCOc1ccccc1-c1sc2c(Cl)c(OCC)ccc2c1-c1c(O)c(C)nn(C)c1=O [7-004],4 (Herbicidal rate of 70% or more and less than 90%)

# System: Italian ryegrass
# Assay: Test Example 5: herbicidal effect by foliage application, plastic box (Table 20, symbol K)
# Assay type: in vivo, Italian ryegrass (Lolium multiflorum)
# Details: foliage application, 320 g/ha, three weeks after application
# In short: as §2
row,SMILES,herbicidal effect on Italian ryegrass (K)
1,CCOc1ccc2c(-c3c(O)c(C)nn(C)c3=O)c(-c3ccccc3OC)sc2c1Cl [7-003],4 (Herbicidal rate of 70% or more and less than 90%)
2,CCOc1ccccc1-c1sc2c(Cl)c(OCC)ccc2c1-c1c(O)c(C)nn(C)c1=O [7-004],4 (Herbicidal rate of 70% or more and less than 90%)

# System: barnyard grass
# Assay: Test Example 5: herbicidal effect by foliage application, plastic box (Table 20, symbol H)
# Assay type: in vivo, barnyard grass (Echinochloa crus-galli)
# Details: foliage application, 320 g/ha, three weeks after application
# In short: as §2
row,SMILES,herbicidal effect on barnyard grass (H)
1,CCOc1ccc2c(-c3c(O)c(C)nn(C)c3=O)c(-c3ccccc3OC)sc2c1Cl [7-003],2 (Herbicidal rate of 20% or more and less than 40%)
2,CCOc1ccccc1-c1sc2c(Cl)c(OCC)ccc2c1-c1c(O)c(C)nn(C)c1=O [7-004],5 (Herbicidal rate of 90% or more (almost completely withered))

# System: lambsquarters
# Assay: Test Example 4: herbicidal effect by soil treatment (Table 19, symbol O)
# Assay type: in vivo, lambsquarters (Chenopodium album)
# Details: amount of applied herbicide 320 g/ha
# In short: as §1
row,SMILES,"O: lambsquarters, herbicidal effect grade"
1,CCOc1ccc2c(-c3c(O)c(C)nn(C)c3=O)c(-c3ccccc3OC)sc2c1Cl [7-003],4 (Herbicidal rate of 70% or more and less than 90%)
2,CCOc1ccccc1-c1sc2c(Cl)c(OCC)ccc2c1-c1c(O)c(C)nn(C)c1=O [7-004],4 (Herbicidal rate of 70% or more and less than 90%)

# System: blackgrass
# Assay: Test Example 5: herbicidal effect by foliage application, plastic box (Table 20, symbol J)
# Assay type: in vivo, blackgrass (Alopecurus myosuroides)
# Details: foliage application, 320 g/ha, three weeks after application
# In short: as §2
row,SMILES,herbicidal effect on blackgrass (J)
1,CCOc1ccc2c(-c3c(O)c(C)nn(C)c3=O)c(-c3ccccc3OC)sc2c1Cl [7-003],4 (Herbicidal rate of 70% or more and less than 90%)
2,CCOc1ccccc1-c1sc2c(Cl)c(OCC)ccc2c1-c1c(O)c(C)nn(C)c1=O [7-004],5 (Herbicidal rate of 90% or more (almost completely withered))

# System: Japanese bulrush
# Assay: Test Example 2: herbicidal activity, application during weed generation under submerged conditions (Table 17, symbol B)
# Assay type: in vivo, Japanese bulrush (Schoenoplectus juncoides)
# Details: AAH 320 g/ha; application during weed generation, submerged conditions
# In short: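 Alluvial soil in Wagner pots was flooded to 4 cm depth and sown with the three weeds together; pots were kept in a greenhouse at 25° C. to 30° C. At the one to two leaf stage, an emulsion formulation diluted in water to a set rate went onto the water surface; scored three weeks later.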
row,SMILES,"herbicidal effect rating, B: Japanese bulrush"
1,CCOc1ccc2c(-c3c(O)c(C)nn(C)c3=O)c(-c3ccccc3OC)sc2c1Cl [7-003],3 (Herbicidal rate of 40% or more and less than 70%)
2,CCOc1ccccc1-c1sc2c(Cl)c(OCC)ccc2c1-c1c(O)c(C)nn(C)c1=O [7-004],3 (Herbicidal rate of 40% or more and less than 70%)

# System: green foxtail
# Assay: Test Example 4: herbicidal effect by soil treatment (Table 19, symbol G)
# Assay type: in vivo, green foxtail (Setaria viridis)
# Details: amount of applied herbicide 320 g/ha
# In short: as §1
row,SMILES,"G: green foxtail, herbicidal effect grade"
1,CCOc1ccc2c(-c3c(O)c(C)nn(C)c3=O)c(-c3ccccc3OC)sc2c1Cl [7-003],0 (Herbicidal rate of 5% or less (almost no effect))
2,CCOc1ccccc1-c1sc2c(Cl)c(OCC)ccc2c1-c1c(O)c(C)nn(C)c1=O [7-004],5 (Herbicidal rate of 90% or more (almost completely withered))

# System: rice flat sedge
# Assay: Test Example 3: herbicidal effect by foliage application, Wagner pot (Table 18, symbol E)
# Assay type: in vivo, rice flat sedge (Cyperus iria)
# Details: amount of applied herbicide 320 g/ha
# In short: (§3)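 Plants were sown in alluvial soil held under 0.1–0.5 cm standing water and grown 14 days in a greenhouse at 25–30 °C. An emulsifiable formulation, water-diluted to the set dose, was then sprayed onto the foliage, and effects were scored three weeks later using previously defined criteria.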
row,SMILES,"Herbicidal effect on E (rice flat sedge), foliage application"
1,CCOc1ccc2c(-c3c(O)c(C)nn(C)c3=O)c(-c3ccccc3OC)sc2c1Cl [7-003],5 (Herbicidal rate of 90% or more (almost completely withered))
2,CCOc1ccccc1-c1sc2c(Cl)c(OCC)ccc2c1-c1c(O)c(C)nn(C)c1=O [7-004],5 (Herbicidal rate of 90% or more (almost completely withered))

# System: lambsquarters
# Assay: Test Example 5: herbicidal effect by foliage application, plastic box (Table 20, symbol O)
# Assay type: in vivo, lambsquarters (Chenopodium album)
# Details: foliage application, 320 g/ha, three weeks after application
# In short: as §2
row,SMILES,herbicidal effect on lambsquarters (O)
1,CCOc1ccc2c(-c3c(O)c(C)nn(C)c3=O)c(-c3ccccc3OC)sc2c1Cl [7-003],5 (Herbicidal rate of 90% or more (almost completely withered))
2,CCOc1ccccc1-c1sc2c(Cl)c(OCC)ccc2c1-c1c(O)c(C)nn(C)c1=O [7-004],4 (Herbicidal rate of 70% or more and less than 90%)

# System: barnyard grass
# Assay: Test Example 4: herbicidal effect by soil treatment (Table 19, symbol H)
# Assay type: in vivo, barnyard grass (Echinochloa crus-galli)
# Details: amount of applied herbicide 320 g/ha
# In short: as §1
row,SMILES,"H: barnyard grass, herbicidal effect grade"
1,CCOc1ccc2c(-c3c(O)c(C)nn(C)c3=O)c(-c3ccccc3OC)sc2c1Cl [7-003],0 (Herbicidal rate of 5% or less (almost no effect))
2,CCOc1ccccc1-c1sc2c(Cl)c(OCC)ccc2c1-c1c(O)c(C)nn(C)c1=O [7-004],3 (Herbicidal rate of 40% or more and less than 70%)

# System: Chinese sprangletop
# Assay: Test Example 3: herbicidal effect by foliage application, Wagner pot (Table 18, symbol D)
# Assay type: in vivo, chinese sprangletop (Leptochloa chinensis)
# Details: amount of applied herbicide 320 g/ha
# In short: as §3
row,SMILES,"Herbicidal effect on D (Chinese sprangletop), foliage application"
1,CCOc1ccc2c(-c3c(O)c(C)nn(C)c3=O)c(-c3ccccc3OC)sc2c1Cl [7-003],3 (Herbicidal rate of 40% or more and less than 70%)
2,CCOc1ccccc1-c1sc2c(Cl)c(OCC)ccc2c1-c1c(O)c(C)nn(C)c1=O [7-004],5 (Herbicidal rate of 90% or more (almost completely withered))
